# Paper PMC12365674, “Diverse metabolites with anti-psoriasis potential from different fermentations of the fungicolous fungus Xylarialongipes HFG1018” (IMA Fungus, 2025)
# Entries after “also recorded” stand apart in the source; their conditions may differ. Where two headings read alike, the source gives them in different places.
# Columns and labels:
# lymphocytes [1] = assay: Lymphocyte viability (CCK-8); assay type: cell-based, mouse; conditions: c = 40 μM
# IL-2 = assay: Cytokine analysis by ELISA of induced T cells: IL-2; assay type: cell-based, mouse; conditions: 40 μM; ConA-induced T cells, 48 h; P < 0.01 vs. model
# Protocol: (§1) The mononuclear cell suspensions (2 × 10^5 cells/well) were cultured with ConA (5 μg/mL) in 96-well plates, and indicated concentrations of compounds 2, 15, and 32 were added simultaneously. After a 48-hour culture period, cytokines in the supernatants were quantified using mouse IFN-γ, IL-2, and IL-17A ELISA kits (Mabtech, Sweden), following the manufacturer’s protocol ([Jing et al. 2021]; [Zhao et al. 2024]).
# [2] = tested on: ConA-induced T lymphocytes; assay: Anti-proliferative activity against ConA-induced T lymphocytes (CCK-8); assay type: cell-based; conditions: Mus musculus, T-lymphocyte
# Protocol: (§2) As previously described, the immunosuppressive activity, lymphocyte viability, and antiproliferative activity against HaCaT cells were evaluated using the CCK-8 method ([Zhao et al. 2023], [2024]).
# (§3) In the immunosuppressive and lymphocyte viability, the primary tested concentration of all compounds was 20.0 μM, and dexamethasone (Dex) (c = 2.0 μM) was used as a positive control. In the antiproliferative activity against HaCaT cells, the primary tested concentration of all compounds was 40 μM, and the positive control was methotrexate (MTX) (c = 40.0 μM). When the inhibition rates are greater than 50%, the IC50 values of active compounds will be further tested and calculated. All experiments were performed in triplicate.
# IFN-γ = assay: Cytokine analysis by ELISA of induced T cells: IFN-γ; assay type: cell-based, mouse; conditions: ConA-induced T cells, 48 h; all sample groups; P < 0.0001 vs. model
# Protocol: as §1
# [3] = tested on: LPS-induced B lymphocytes; assay: Anti-proliferative activity against LPS-induced B lymphocytes (CCK-8); assay type: cell-based, mouse; conditions: for IC50: induced proliferation of B lymphocytes (LPS), CCK-8, read-out: B cells IC50
# Protocol: as §2, §3
# [4] = tested on: LPS-induced B lymphocytes; assay: as above; assay type: cell-based; conditions: Mus musculus, Lymphocyte, c = 40 μM, read-out: Inhibition rate (%) B
# [5] = tested on: ConA-induced T lymphocytes; assay: Anti-proliferative activity against ConA-induced T lymphocytes (CCK-8); assay type: cell-based; conditions: Mus musculus, T-lymphocyte, c = 40 μM, read-out: Inhibition rate (%) T
# lymphocytes [6] = assay: Lymphocyte viability (CCK-8); assay type: cell-based, mouse; conditions: c = 20 μM
# Protocol: as §2, §3
# HaCaT cells [7] = assay: Antiproliferative activity against HaCaT cells (CCK-8); assay type: cell-based; conditions: Homo sapiens, HaCaT, read-out: IC50 against the proliferation of HaCaT cells
# Protocol: as §2, §3
# IL-17A = assay: Cytokine analysis by ELISA of induced T cells: IL-17A; assay type: cell-based, mouse; conditions: 10 μM; ConA-induced T cells, 48 h; P < 0.01 vs. model
# Protocol: as §1
# [8] = tested on: induced T cells (Con A 5 μg/mL); assay: EdU proliferation assay, induced T cells; assay type: cell-based, mouse; conditions: c = 10 μM; relative to the model group
# Protocol: (§4) EdU fluorescence labeling for cell proliferation of induced T/B lymphocytes (2 × 10^5 cells/well) and HaCaT cells (1 × 10^4 cells/well) of active compounds 10, 19, 23, 32, 38, and 41 (final concentration 10 or 20 μM) was performed as previously reported ([Biram and Shulman 2020]; [Zhao et al. 2024]). EdU (HF488) (the Click-iT™ EdU Flow Cytometry Assay Kit, APExBIO, USA) was added 24 h (final concentration 50 μM, T and B cells) and 4 h (final concentration 10 μM, HaCaT cells) before harvesting the cells. All procedures were performed according to the manufacturer’s instructions for the click reaction. EdU-positive cells and proliferating phase cells were analyzed with a fluorescence microscope.
# [9] = tested on: NF-κB p65 phosphorylation; assay: Immunofluorescence of p-p65/p65 in HaCaT cells; assay type: cell-based; conditions: 27.0 μM, 36 h, P < 0.01 vs. Con
# Protocol: The immunofluorescence protocol was performed using the reported method ([Zhao et al. 2024]). HaCaT cells (2.0 × 10^5 cells/well) were plated onto 6-well plates with glass coverslips and adhered overnight (12 h) before compound addition. After treatment with active compounds 10 (final concentration 31 μM) and 32 (final concentration 27 μM) for 36 h, the supernatant was removed, and the cells were washed twice with PBS, fixed with 4% paraformaldehyde for 15 min, and then washed with PBS three times. After blocking, incubated with NF-κB p65 (p65)/phosphorylated NF-κB p65 (p-p65) antibodies and secondary antibodies (Servicebio, China). Then, cells were counterstained with 4,6-[…]-2-phenylindole (DAPI) for 5 min. After the PBS washing, fluorescent seal liquid was added, and the plate was monitored under an imaging system (Pannoramic MIDI, 3Dhistech, Hungary). The nucleus is blue, and positive cells are green (p-p65) or red (p65). The immunofluorescence areas for each indicator were analyzed in ImageJ.
# HaCaT cells [10] = assay: EdU proliferation assay, HaCaT cells; assay type: cell-based; conditions: c = 20 μM; compared to the control group
# Protocol: as §4
# [11] = tested on: induced B cells (LPS 15 μg/mL); assay: EdU proliferation assay, induced B cells; assay type: cell-based, mouse; conditions: c = 10 μM; relative to the model group
# Protocol: as §4
# [12] = Lymphocyte viability (CCK-8); assay type: cell-based, mouse; conditions: mouse, lymphocytes; lymphocyte viability; CCK-8
# Protocol: as §2, §3
SMILES,Cell validity (%) (lymphocytes [1]),IL-2 levels (IL-2),"inhibition at 20 µM ([2]; c = 20 μM, ConA-induced T lymphocytes, read-out: Inhibition rate (%) T)",IFN-γ secretion (IFN-γ),"inhibition at 20 µM ([3]; Mus musculus, Lymphocyte, c = 20 μM, LPS-induced B lymphocytes, read-out: Inhibition rate (%) B)",inhibition at 40 µM [4],inhibition at 40 µM [5],Cell validity (%) (lymphocytes [6]),"IC50 ([2]; induced proliferation of T lymphocytes (ConA), CCK-8, read-out: T cells IC50)",IC50 (HaCaT cells [7]),IL-17A levels (IL-17A),proliferation of induced T cells measured by EdU [8],NF-κB activation (ratio p-p65/p65) [9],proliferation rates of HaCaT cells measured by EdU (HaCaT cells [10]),proliferation of induced B cells measured by EdU [11],"IC50 ([3]; Mus musculus, Lymphocyte)",IC50 [3],CC50 [12]
"C[C@]1(CCO)CC[C@H]2C(=CC[C@@H]3[C@]2(C)CCC[C@]3(C)C(=O)O)C1 [Compound 15, 16-hydroxyisopimar-7-en-19-oic acid]",80.2 ± 1.8%,significantly reduced,26.4 ± 6.3%,significant reduction; also recorded: significantly reduced,23 ± 4.3%,29 ± 12.2%,28.8 ± 5.8%,89.9 ± 7.5%,–,–,–,–,–,–,–,–,–,–
"CO[C@@H]1C=C2[C@@H]3CC[C@H]([C@H](C)/C=C/[C@H](C)C(C)C)[C@@]3(C)CC[C@@H]2[C@@]2(C)CC[C@H](O)C[C@]12O [Compound 32, (3β,5α,6β,22E)-6-methoxyergosta-7,22-diene-3,5-diol]",–,–,–,significant reduction; also recorded: significantly reduced,–,–,–,–,3.1 ± 0.2 µM,27 ± 1.3 µM,markedly lowered; also recorded: inhibiting IL-17A secretion,significantly suppressed the proliferation,significantly attenuated NF-κB activation,significantly reduced,significantly suppressed the proliferation,8 to 20 µM,6 ± 0.3 µM,> 20 µM
